# Laboratory results: patent publication US20070160574A1, “Design of CXC chemokine analogs for the treatment of human diseases” (priority 2000, published 2007)
# Non-standard residues stand in square brackets, D forms with d. No end group written: not given here. Aun = NCCCCCCCCCCC(=O)O
# Biological target: T1, CXCR3 receptor (CXCR-3/300-19 cells) (Homo sapiens, UniProt P49682)
# T1 construct: expressed in transfected cells; host or cells: 300-19 mouse pre-B lymphocytes (CXCR-3/300-19)
# T1 sequence (P49682 1-368): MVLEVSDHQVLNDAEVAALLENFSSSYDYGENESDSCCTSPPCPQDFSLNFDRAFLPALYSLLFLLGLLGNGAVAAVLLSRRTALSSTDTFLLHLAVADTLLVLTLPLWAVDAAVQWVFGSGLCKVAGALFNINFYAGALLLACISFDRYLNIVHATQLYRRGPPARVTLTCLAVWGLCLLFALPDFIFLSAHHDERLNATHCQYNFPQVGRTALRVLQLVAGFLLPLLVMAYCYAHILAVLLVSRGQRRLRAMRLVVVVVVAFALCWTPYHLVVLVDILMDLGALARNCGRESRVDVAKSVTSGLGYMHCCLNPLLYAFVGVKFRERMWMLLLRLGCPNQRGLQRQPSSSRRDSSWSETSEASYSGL
# Assay: [Ca2+]i mobilization by IP-10 analogs, FLIPR Calcium 3 kit, CXCR-3/300-19 cells
# Assay type: cell-based
# Conditions: 100 μM (FIG. 1); three independent experiments
# Protocol: Binding and Calcium Mobilization: Suspensions of CXCR-3/300-19 cells were used to assess binding and intracellular calcium mobilization induced by IP-10 analogs. These are mouse pre-B lymphocytes transfected with the CXCR3 receptor, (Moser, et al). The cells were washed in RPMI media and resuspended in RPMI media supplemented with 10% FCS, then plated at 1.2×10^5 cells per well of 96-well black wall/clear bottom plates coated with poly-D-lysine (Becton Dickinson) and loaded with 100 uL fluorescent calcium indicator FLIPR Calcium 3 assay kit component A (Molecular Probes) for 1 hr at 37° C. The cells on the plates were then spun at 1000 rpm for 15 minutes at room temperature.
# Each of the sequences successfully bound to the cellular receptors. The intracellular calcium mobilization in response to 25 uL (0-100000 nM final concentrations) of the appropriate and various concentrations of analogue was measured at 37° C. by monitoring fluorescence as a function of time in all the wells using the Flexstation Fluorometric Imaging Plate Reader (Molecular Devices). All analogues were run simultaneously with rhIP-10 (R&D Systems) as the standard. Table 7 provides the dosage effect of the binding of each of the IP-10 analogs on the calcium mobilization activity of the cells.
row,Molecule,increase in intracellular calcium mobilization [%]
1,"acetylated-IP-10-(1-16)-[linker]-IP-10-(66-78) (Ac-VPLSRTVRCTCISISN[Aun]LKAVSKEMSKRSP; cysteine pairing not given here) [SEQ ID NO:1641, IP-10 analog, numbering of U.S. App; 11/590,210]",~500

# Same assay, conditions: dosage 1.2 μM; CXCR-3/300-19 cells
row,Molecule,calcium mobilization activity of the cells [%]
1,"acetylated-IP-10-(1-16)-[linker]-IP-10-(66-78) (Ac-VPLSRTVRCTCISISN[Aun]LKAVSKEMSKRSP; cysteine pairing not given here) [SEQ ID NO:1641, IP-10 analog, numbering of U.S. App; 11/590,210]",12.6

# Same assay, conditions: dosage 3.7 μM; CXCR-3/300-19 cells
row,Molecule,calcium mobilization activity of the cells [%]
1,"acetylated-IP-10-(1-16)-[linker]-IP-10-(66-78) (Ac-VPLSRTVRCTCISISN[Aun]LKAVSKEMSKRSP; cysteine pairing not given here) [SEQ ID NO:1641, IP-10 analog, numbering of U.S. App; 11/590,210]",12.7

# Same assay, conditions: dosage 11.1 μM; CXCR-3/300-19 cells
row,Molecule,calcium mobilization activity of the cells [%]
1,"acetylated-IP-10-(1-16)-[linker]-IP-10-(66-78) (Ac-VPLSRTVRCTCISISN[Aun]LKAVSKEMSKRSP; cysteine pairing not given here) [SEQ ID NO:1641, IP-10 analog, numbering of U.S. App; 11/590,210]",14.1

# Same assay, conditions: dosage 33.3 μM; CXCR-3/300-19 cells
row,Molecule,calcium mobilization activity of the cells [%]
1,"acetylated-IP-10-(1-16)-[linker]-IP-10-(66-78) (Ac-VPLSRTVRCTCISISN[Aun]LKAVSKEMSKRSP; cysteine pairing not given here) [SEQ ID NO:1641, IP-10 analog, numbering of U.S. App; 11/590,210]",20

# Same assay, conditions: dosage 100 μM; CXCR-3/300-19 cells
row,Molecule,calcium mobilization activity of the cells [%]
1,"acetylated-IP-10-(1-16)-[linker]-IP-10-(66-78) (Ac-VPLSRTVRCTCISISN[Aun]LKAVSKEMSKRSP; cysteine pairing not given here) [SEQ ID NO:1641, IP-10 analog, numbering of U.S. App; 11/590,210]",52.9

# Test system: SUP-T1 cells
# Assay: not given
# Assay type: cell-based, human
# Conditions: not given
# Protocol: The experiments include contacting an SDF-1 mimetic with a cell. For the experiments, SUP-T1 cells (ATCC) were plated on the day of the experiment using 1.2×10^5 cells per well in 96-well black-wall/clear-bottom plates coated with poly-D-lysine (BD Biosciences) and loaded using a fluorescent calcium indicator. The indicator used was from a FLIPR Calcium 3 assay kit, component A, (Molecular Probes) and was loaded in the cell for 1 hr at 37° C. The intracellular calcium mobilization in response to the appropriate analogue was measured at 37° C. by monitoring the fluorescence as a function of time simultaneously in all the wells using a Flexstation Fluorometric Imaging Plate Reader (Molecular Devices).
row,Molecule,EC50 [nM]
1,KPVSLSYRAPFRFFGGKGLKWIQEYLEKALN-NH2 [SEQ ID NO: 5],211
2,KPVSLSYRAPFRFFRGGRLKWIQEYLEKALN-NH2 [SEQ ID NO: 25],132
3,KPVSLSYRAPFRFFGRRRLKWIQEYLEKALN-NH2 [SEQ ID NO: 29],1870
4,KPVSLSYRAPFRFFGKKKLKWIQEYLEKALN-NH2 (C-terminus assumed) [SEQ ID NO: 14],92
5,KPVSLSYRAPFRFFKKKGLKWIQEYLEKALN-NH2 (C-terminus assumed) [SEQ ID NO: 13],137
6,KPVSLSYRAPFRFFGKGKLKWIQEYLEKALN-NH2 (C-terminus assumed) [SEQ ID NO: 12],307
7,KPVSLSYRAPFRFFRRGGLKWIQEYLEKALN-NH2 (C-terminus assumed) [SEQ ID NO: 22],171
8,KPVSLSYRAPFRFFGGRRLKWIQEYLEKALN-NH2 [SEQ ID NO: 24],173
9,KPVSLSYRAPFRFFRGGGLKWIQEYLEKALN-NH2 (C-terminus assumed) [SEQ ID NO: 18],219
10,KPVSLSYRAPFRFFGGRGLKWIQEYLEKALN-NH2 (C-terminus assumed) [SEQ ID NO: 20],307
11,KPVSLSYRAPFRFFRRRGLKWIQEYLEKALN-NH2 [SEQ ID NO: 28],597
12,KPVSLSYRAPFRFFGRGRLKWIQEYLEKALN-NH2 [SEQ ID NO: 27],4320
13,KPVSLSYRAPFRFFKGKKLKWIQEYLEKALN-NH2 (C-terminus assumed) [SEQ ID NO: 15],157
14,KPVSLSYRAPFRFFKGKGLKWIQEYLEKALN-NH2 [SEQ ID NO: 11],228
15,KPVSLSYRAPFRFFGRRGLKWIQEYLEKALN-NH2 [SEQ ID NO: 23],202
16,KPVSLSYRAPFRFFGKGGLKWIQEYLEKALN-NH2 (C-terminus assumed) [SEQ ID NO: 4],312
17,KPVSLSYRAPFRFFKKGKLKWIQEYLEKALN-NH2 (C-terminus assumed) [SEQ ID NO: 16],140
18,KPVSLSYRAPFRFFKKGGLKWIQEYLEKALN-NH2 (C-terminus assumed) [SEQ ID NO: 7],281
19,KPVSLSYRAPFRFFRGRGLKWIQEYLEKALN-NH2 [SEQ ID NO: 26],248
20,KPVSLSYRAPFRFFGGKKLKWIQEYLEKALN-NH2 (C-terminus assumed) [SEQ ID NO: 9],225
21,KPVSLSYRAPFRFFGGGRLKWIQEYLEKALN-NH2 (C-terminus assumed) [SEQ ID NO: 21],361
22,KPVSLSYRAPFRFFKKKKLKWIQEYLEKALN-NH2 (C-terminus assumed) [SEQ ID NO: 17],316
23,KPVSLSYRAPFRFFGRGGLKWIQEYLEKALN-NH2 (C-terminus assumed) [SEQ ID NO: 19],253
24,KPVSLSYRAPFRFFRGRRLKWIQEYLEKALN-NH2 [SEQ ID NO: 30],178
25,KPVSLSYRAPFRFFKGGKLKWIQEYLEKALN-NH2 (C-terminus assumed) [SEQ ID NO: 10],233
26,KPVSLSYRAPFRFFGKKGLKWIQEYLEKALN-NH2 (C-terminus assumed) [SEQ ID NO: 8],304
27,KPVSLSYRAPFRFFRRRRLKWIQEYLEKALN-NH2 [SEQ ID NO: 32],1120
28,KPVSLSYRAPFRFFRRGRLKWIQEYLEKALN-NH2 [SEQ ID NO: 31],709
29,KPVSLSYRAPFRFFGGGKLKWIQEYLEKALN-NH2 (C-terminus assumed) [SEQ ID NO: 6],283

# Test system: high affinity receptors on human immature monocyte-derived dendritic cells (iDCs)
# Assay: not given
# Conditions: cited from earlier work
row,Molecule,Kd [nM]
1,"rBRAK: recombinant BRAK (CXCL14 chemokine) (protein, UniProt O95715 35-111, looked up) C-X-C motif chemokine 14: SKCKCSRKGPKIRYSDVKKLEMKPKYPHCEEKMVIITTKSVSRYRGQEHCLHPKLQSTKRFIKWYNAWNEKRRVYEE",2

# Test system: endothelial cell chemotaxis
# Assay: not given
# Conditions: in vitro; cited from earlier work
row,Molecule,concentration blocking endothelial cell chemotaxis (as low as) [nmol/L]
1,"rBRAK: recombinant BRAK (CXCL14 chemokine) (protein, UniProt O95715 35-111, looked up) C-X-C motif chemokine 14: SKCKCSRKGPKIRYSDVKKLEMKPKYPHCEEKMVIITTKSVSRYRGQEHCLHPKLQSTKRFIKWYNAWNEKRRVYEE",1
